Assay results: PubChem BioAssay (NCI)
“And” between values parts separate entries of the source, which are not always exact repeats. Equal values may be shown once.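 Compound exposure: 48 hours, 5 concentrations, 96-well plates. GI50 marks 50% less growth. TGI: total growth inhibition.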

Assays:
Assay in all cases: inhibition of tumour cell growth, NCI panel, 48 h
[1] = tested on: OVCAR-5 ovarian
[2] = tested on: COLO 205 colon
[3] = tested on: KM12 colon
[4] = tested on: BT-549 breast
[5] = tested on: CAKI-1 renal
[6] = tested on: MDA-MB-435
[7] = tested on: SF-539 CNS
[8] = tested on: CCRF-CEM leukemia
[9] = tested on: K-562 leukemia
[10] = tested on: UO-31 renal

CN(C)c1ccc(/C=C(\C#N)c2ccccc2)cc1
GI50 [1]: 4.51 µM and 17.2 µM and 10.3 µM | TGI [1]: > 100 µM | GI50 [2]: 0.384 µM and 0.42 µM and 0.353 µM | TGI [2]: 2.32 µM and 5.35 µM and 2.76 µM | GI50 [3]: 0.307 µM and 0.425 µM and 0.437 µM | TGI [3]: 21.8 µM and > 100 µM | GI50 [4]: 0.121 µM and 0.794 µM and 0.621 µM | GI50 [5]: 0.244 µM and 0.586 µM and 0.591 µM | GI50 [6]: 0.0424 µM and 0.192 µM and 0.13 µM | GI50 [7]: 0.324 µM and 0.481 µM | TGI [7]: 1.34 µM and 4.48 µM | GI50 [8]: 0.332 µM and 0.553 µM and 0.595 µM | TGI [8]: 13.4 µM and > 100 µM | GI50 [9]: 0.194 µM and 0.337 µM and 0.35 µM | TGI [9]: > 100 µM | GI50 [10]: 0.587 µM and 0.698 µM and 1.74 µM | TGI [10]: > 100 µM

Nc1c(C(=O)c2ccc(C#CCN3CCOCC3)cc2)cnn1-c1ccc(F)cc1
GI50 [1]: > 25 µM | TGI [1]: > 25 µM | GI50 [2]: > 25 µM | TGI [2]: > 25 µM | GI50 [3]: > 25 µM | TGI [3]: > 25 µM | GI50 [4]: > 25 µM | TGI [4]: > 25 µM | GI50 [5]: > 25 µM | TGI [5]: > 25 µM | GI50 [6]: > 25 µM | TGI [6]: > 25 µM | GI50 [7]: > 25 µM | TGI [7]: > 25 µM | GI50 [8]: > 25 µM | TGI [8]: > 25 µM | GI50 [9]: > 25 µM | TGI [9]: > 25 µM | GI50 [10]: > 25 µM | TGI [10]: > 25 µM

CCOC(=O)C1=C(C)NC(C)=C(C(=O)OCCNC(=O)c2ccc(N=[N+]=[N-])cc2)C1c1ccccc1C(F)(F)F (configuration not stated)
TGI [1]: 21.5 µM | TGI [2]: 11 µM | TGI [3]: 21.5 µM | TGI [4]: 68.2 µM | TGI [5]: 21.5 µM | TGI [6]: 20.5 µM | TGI [7]: > 31.6 µM | TGI [8]: 21.5 µM | TGI [9]: 21.5 µM | TGI [10]: 21.5 µM

COc1cc(-c2cc(-c3cccs3)c(C#N)c(N3CCOCC3)n2)cc(OC)c1OC
GI50 [1]: > 100 µM | TGI [1]: > 100 µM | GI50 [2]: 2.3 µM | TGI [2]: 6.62 µM | GI50 [3]: 6.02 µM | TGI [3]: > 100 µM | GI50 [4]: 8.22 µM | TGI [4]: > 100 µM | GI50 [5]: > 21.6 µM | TGI [5]: > 100 µM | GI50 [6]: > 47.9 µM | TGI [6]: > 100 µM | GI50 [7]: 5.06 µM | TGI [7]: > 100 µM | GI50 [8]: 5.66 µM | TGI [8]: > 100 µM | GI50 [9]: 3.8 µM | TGI [9]: > 100 µM | GI50 [10]: 5.12 µM | TGI [10]: > 100 µM

CC(C)n1nc(C#Cc2cccc(O)c2)c2c(N)ncnc21
GI50 [1]: 1.79 µM and 1.62 µM | TGI [1]: 16.4 µM and 8 µM | GI50 [2]: 1.53 µM and 1.89 µM | TGI [2]: 12.7 µM and 13.2 µM | GI50 [3]: 1.75 µM and 2.33 µM | TGI [3]: 25.8 µM and 60.8 µM | GI50 [4]: 1.33 µM and 1.34 µM | TGI [4]: 4.56 µM and 6.18 µM | GI50 [5]: 1.66 µM and 1.59 µM | TGI [5]: 6.06 µM and 6.87 µM | GI50 [6]: 0.882 µM and 0.655 µM | TGI [6]: 5.5 µM and 5.03 µM | GI50 [7]: 0.815 µM and 0.282 µM | TGI [7]: 3.57 µM and 1.65 µM | GI50 [8]: 1.65 µM and 1.15 µM | TGI [8]: 50 µM and 13.3 µM | GI50 [9]: 0.0636 µM and 0.0283 µM | TGI [9]: 50 µM and > 100 µM | GI50 [10]: 0.391 µM and 0.416 µM | TGI [10]: 1.92 µM and 2.83 µM

COc1ccc(N=N/C(=N\NC(=O)c2cc(Br)ccc2O)c2ccc(N(CCC#N)CCC#N)cc2OC)cc1
GI50 [1]: 108 µg/mL | TGI [1]: > 150 µg/mL | GI50 [2]: 50.6 µg/mL | TGI [2]: > 150 µg/mL | GI50 [3]: 44.6 µg/mL | TGI [3]: 128 µg/mL | GI50 [4]: > 150 µg/mL | TGI [4]: > 150 µg/mL | GI50 [5]: 53.3 µg/mL | TGI [5]: > 150 µg/mL | GI50 [6]: > 150 µg/mL | TGI [6]: > 150 µg/mL | GI50 [7]: 80.8 µg/mL | TGI [7]: > 150 µg/mL | GI50 [8]: 57.1 µg/mL | TGI [8]: > 150 µg/mL | GI50 [9]: 74.9 µg/mL | TGI [9]: > 150 µg/mL | GI50 [10]: 59.5 µg/mL | TGI [10]: > 150 µg/mL

Nc1nc(=S)c2ncn(C3OC(CO)C(O)C3O)c2[nH]1 (configuration not stated)
GI50 [1]: 0.827 µM | TGI [1]: > 100 µM | GI50 [2]: 2.18 µM | TGI [2]: 7.82 µM | GI50 [3]: 1.79 µM | TGI [3]: > 27.8 µM | GI50 [4]: 2.12 µM | TGI [4]: > 100 µM | GI50 [5]: 0.703 µM | TGI [5]: 5.88 µM | GI50 [6]: 1.02 µM | TGI [6]: > 69.6 µM | GI50 [7]: 0.745 µM | TGI [7]: > 79.2 µM | GI50 [8]: 0.318 µM | TGI [8]: > 68.2 µM | GI50 [9]: 0.49 µM | TGI [9]: > 61.1 µM | GI50 [10]: 0.77 µM | TGI [10]: > 100 µM

COc1ccc(CN2C(=O)/C(=C\C(=O)c3ccc(OCCN4CCCC4)cc3)c3ccccc32)cc1
GI50 [1]: 1.78 µM | TGI [1]: 4.76 µM | GI50 [2]: 2.28 µM | TGI [2]: 5.52 µM | GI50 [3]: 11.1 µM | TGI [3]: 34.7 µM | GI50 [4]: 10.6 µM | TGI [4]: 23.3 µM | GI50 [5]: 11.8 µM | TGI [5]: 27 µM | GI50 [6]: 1.81 µM | TGI [6]: 3.74 µM | GI50 [7]: 1.82 µM | TGI [7]: 3.75 µM | GI50 [8]: 3.34 µM | TGI [8]: 32.2 µM | GI50 [9]: 2.05 µM | TGI [9]: 6.03 µM | GI50 [10]: 1.66 µM | TGI [10]: 3.11 µM

O=C(Nc1ccc(Oc2ccc(NC(=O)Nc3ccccc3Cl)cc2)cc1)Nc1ccccc1Cl
GI50 [1]: 27.6 µM | TGI [1]: > 100 µM | GI50 [2]: 15.7 µM | TGI [2]: > 100 µM | GI50 [3]: > 100 µM | TGI [3]: > 100 µM | GI50 [4]: 5.06 µM | TGI [4]: 25 µM | GI50 [5]: > 31.9 µM | TGI [5]: > 88.2 µM | GI50 [6]: > 100 µM | TGI [6]: > 100 µM | GI50 [7]: 6 µM | TGI [7]: 22.1 µM | GI50 [8]: 4.72 µM | TGI [8]: 28.8 µM | GI50 [9]: 2.63 µM | TGI [9]: > 40.1 µM | GI50 [10]: 34.8 µM | TGI [10]: > 95.8 µM

CCSc1nc(NC(C)c2ccccc2)c2cnn(CO)c2n1 (configuration not stated)
GI50 [1]: > 100 µM | TGI [1]: > 100 µM | GI50 [2]: > 100 µM | TGI [2]: > 100 µM | GI50 [3]: 42.1 µM | TGI [3]: > 100 µM | GI50 [4]: 17.7 µM | TGI [4]: 64.1 µM | GI50 [5]: 0.135 µM | TGI [5]: 56.1 µM | GI50 [6]: 21.1 µM | TGI [6]: > 100 µM | GI50 [7]: 94.4 µM | TGI [7]: > 100 µM | GI50 [8]: > 100 µM | TGI [8]: > 100 µM | GI50 [9]: 29.2 µM | TGI [9]: > 100 µM | GI50 [10]: 66.5 µM | TGI [10]: > 100 µM
